In patent publication US20220347144A1, “COMPOSITIONS AND METHODS FOR PREVENTING AND/OR REDUCING WEIGHT GAIN AND ASSOCIATED CONDITIONS” (University of Virginia Patent Foundation, priority 2019, published 2022):

How the values were obtained:
Assay type in all cases: in vivo, mouse
[1] = system: C57Bl/6J mice; test: Plasma insulin (fasting and after IP glucose); settings: for fasting (basal) plasma insulin levels: HFD+NA versus HFD; for fasting (basal) plasma insulin levels / fasting plasma insulin levels: 8 weeks; for increase in insulin after intraperitoneal administration of glucose: HFD+NA, 30 min after IP glucose; for fasting plasma insulin levels: control diet with NA
Experimental: (§1) Insulin Tolerance Test (ITT) and Glucose Tolerance Test (GTT) and analysis of blood glucose and plasma insulin. ITT and GTT were performed as described in Lansey et al., 2012. Briefly, for ITT, random-fed mice were given an intraperitoneal injection (IP) of insulin (0.75 U/kg in 0.9% NaCl). Blood glucose levels were determined by a glucometer (Contour Next EZ Blood Glucose Monitoring System, Bayer, Leverkusen, Germany) at the indicated time points after injection. For GTT, mice were fasted for 16 hours prior to testing. D-Glucose, prepared the day before, was administered via an IP injection (1 g/kg), and blood glucose levels were determined by a glucometer at the indicated time points after injection. Plasma insulin levels were determined using a STELLUX® brand Chemi Rodent Insulin ELISA kit (Cat. No. 80-INSMR-CHO1; APLCO, Salem, N.H., United States of America) or an Ultrasensitive Rat/Mouse Insulin ELISA kit, Low Range Assay (Cat. No. 90060; Crystal Chem, Downers Grove, Ill., United States of America). The luminescence assay was conducted using a VICTOR2 Plate Reader (Perkin Elmer, Waltham, Mass., United States of America).
For assessment of insulin, blood was collected with heparinized capillary tubes and subsequently centrifuged to obtain plasma. Insulin levels was then determined using a STELLUX® Chemi Rodent Insulin ELISA kit (Catalog No. 80-INSMR-CHO1, APLCO, Salem, N.H., United States of America) or an Ultrasensitive Rat/Mouse Insulin ELISA kit low range (Cat. No 90060; Crystal Chem, Downers Grove, Ill., United States of America). The luminescence assay was conducted using a VICTOR2 Plate Reader (Perkin Elmer, Waltham, Mass., United States of America).

[2] = system: C57Bl/6J mice; test: Insulin Tolerance Test (ITT)
Experimental: as §1

[3] = system: C57Bl/6J mice; test: Energy expenditure, respiratory exchange ratio and locomotion in metabolic cages
Experimental: For determination of energy expenditure, respiratory exchange ratios, and activity, mice were placed in an Oxymax metabolic chamber systems (Comprehensive Laboratory Animal Monitoring System, CLAMS, from Columbus Instruments (Columbus, Ohio, United States of America). Oxygen consumption (V02) and carbon dioxide production (VCO2) were determined for each mouse every 18 minutes over 72 hours with ambulatory activity assessed every minute over this same time period. Only the last two complete light and dark cycles (spanning 48 hours) were used for data analysis. Feces was collected from these studies and shipped to the Mouse Metabolic Phenotyping Core at the University of Texas Southwestern for bomb calorimetry analysis using a Parr 6200 Isoperibol Calorimeter (Parr Instrument Company, Moline, Ill., United States of America).

[4] = system: PGC1α; test: Liver transcript analysis by qRT-PCR; settings: HFD+NA
Experimental: (§2) Transcript analysis. RNA was isolated from mouse liver by manual homogenization in TRIzol reagent (Invitrogen, Carlsbad, Calif., United States of America) following the manufacturer's instructions. Total RNA underwent DNase I treatment (New England Biolabs, Ipswich, Mass., United States of America) and cDNA was made using the ISCRIPT™ brand cDNA Synthesis Kit (Bio-Rad Laboratories, Hercules, Calif., United States of America). Quantitative real-time PCR was carried out using Bio-Rad SYBR® green probes (PPARα Bio-Rad Assay ID qMmuCID0005156; SIRT1 Bio-Rad Assay ID qMmuCID0015511; PGC1α Bio-Rad Assay ID qMmuCID0006032). The TATA binding protein (Bio-Rad Assay ID qMmuCID0040542) gene was used to normalize target gene abundance. Biological samples were run in triplicate.

[5] = system: PPARα; test: Liver transcript analysis by qRT-PCR; settings: HFD+NA
Experimental: as §2

[6] = system: SIRT1; test: Liver transcript analysis by qRT-PCR; settings: HFD+NA
Experimental: as §2

[7] = system: C57Bl/6J mice; test: Fasting and random-fed blood glucose; settings: for fasting blood glucose / random-fed blood glucose: HFD+NA versus HFD, 8 weeks on diets
Experimental: as §1

Q: How did the “fasting (basal) plasma insulin levels” value [1] turn out when (Z)-tetracos-15-enoic acid [NA] was run?
A: significantly reduced

Q: What about the “fasting (basal) plasma insulin levels” value ([1]; listed as nervonic acid) of the same substance?
A: reduced insulin levels

Q: And the “increase in insulin after intraperitoneal administration of glucose” value [1]?
A: no such increase

Q: What about the “increase in insulin after intraperitoneal administration of glucose” value ([1]; listed as nervonic acid) of the same substance?
A: not observed

Q: And the “fasting plasma insulin levels” value [1]?
A: did not affect insulin levels

Q: And the “fasting plasma insulin levels” value ([1]; listed as nervonic acid)?
A: did not influence insulin levels

Q: What about the “response of blood glucose to insulin injection” value (“response of blood glucose” below) ([2]; HFD+NA, 11 weeks on diets) of the same substance?
A: responded similarly to mice on control diets

Q: And the “response of blood glucose” value ([2]; HFD+NA, 11 weeks on diets, listed as nervonic acid)?
A: responded similarly to mice on the control diet

Q: And the “response of blood glucose” value ([2]; control diet containing NA)?
A: responded similar to mice on the control diet alone

Q: And the “response of blood glucose” value ([2]; control diet containing NA, listed as nervonic acid)?
A: responded similar to the control diet

Q: What about the ambulatory activity ([3]; HFD+NA versus HFD) of the same substance?
A: similar

Q: And the “oxygen consumption (VO2)” value ([3]; HFD+NA versus HFD, light and dark cycle)?
A: significantly lower

Q: And the “carbon dioxide production (VCO2)” value ([3]; HFD+NA versus control and HFD groups)?
A: significant reduction

Q: What about the ambulatory activity ([3]; control+NA versus control) of the same substance?
A: similar

Q: What about the heat production ([3]; control+NA versus control) of the same substance?
A: No differences

Q: And the “respiratory exchange ratio (RER)” value ([3]; control+NA versus control, light and dark cycles)?
A: No statistical changes

Q: And the “PGC1α mRNA levels in liver” value [4]?
A: restored

Q: What about the “PPARα mRNA levels in liver” value [5] of the same substance?
A: increased

Q: What about the “SIRT1 mRNA levels in liver” value [6] of the same substance?
A: restored

Q: And the fasting blood glucose [7]?
A: significant reductions

Q: What about the random-fed blood glucose [7] of the same substance?
A: significant reductions

Q: What about the fasting blood glucose ([7]; listed as nervonic acid) of the same substance?
A: significant reduction

Q: And the random-fed blood glucose ([7]; listed as nervonic acid)?
A: significant reduction

Q: What about the blood glucose levels ([7]; HFD+NA versus control diet, random fed or fasted) of the same substance?
A: not significantly different

Q: And the blood glucose levels ([7]; control with NA diet versus control)?
A: No significant differences
